Experimental data from patent US11426473B2, “Nitrogen-containing compound or salt thereof, or metal complex thereof” (FUJIFILM Corporation, priority 2013, dated 2022).
One block for each compound: values may come before it.

Assays:
[1] = Radiochemical purity after standing at room temperature; assay type: physicochemical
Protocol: To a mixed solution of compound (P2) (8.5 μg) and a 0.2 mol/L sodium acetate buffer solution (pH 4.0) (1.5 mL), a [^111In] indium chloride solution (80 MBq, 100 μL) was added. The mixture was heated at 100° C. for 15 minutes and then left at room temperature for 5 minutes to obtain radiolabeled compound [^111In]-(P2). […] Its radiochemical purity was 95% or more both immediately after preparation and after standing at room temperature for 24 hours.
To a mixed solution of compound (P2) (79 μg), gentisic acid (1.8 mg), a 0.6 mol/L sodium acetate buffer solution (pH 4.0, 120 μL), and a 0.4 mol/L aqueous sodium hydroxide solution (24 μL), a [^90Y] yttrium chloride solution (700 MBq, 240 μL) was added. The mixture was heated at 100° C. for 20 minutes and then left at room temperature for 5 minutes to obtain radiolabeled compound [^90Y]-(P2). […] Its radiochemical purity was 95% or more both immediately after preparation and after standing at room temperature for 24 hours.
To a mixed solution of compound (P2) ([…]) and a 0.2 mol/L sodium acetate buffer solution (pH 4.0, 219 μL), a [^64Cu] copper chloride solution (pH 5, 35 MBq, 55 μL) was added. The mixture was heated at 100° C. for 15 minutes and then left at room temperature for 5 minutes to obtain radiolabeled compound [^64Cu]-(P2). […] Its radiochemical purity was 90% or more both immediately after preparation and after standing at room temperature for 22 hours.
To a mixed solution of compound (Aa7) (4.2 μg), gentisic acid (1 mg), and a 0.2 mol/L sodium acetate buffer solution (pH 4.0) (5.0 μL), [^64Cu] copper chloride in a 0.2 mol/L sodium acetate buffer solution (pH 4.0) (40 MBq, 155 μL) was added. The mixture was heated at 100° C. for 15 minutes and then left at room temperature for 5 minutes to obtain radiolabeled compound [^64Cu]-(Aa7). […] Its radiochemical purity was 90% or more both immediately after preparation and after standing at room temperature for 24 hours.

[2] = Absorbed doses in each organ in humans calculated with OLINDA/EXM 1.0 from monkey organ distribution; assay type: in vivo; details: calculated with OLINDA/EXM 1.0 from monkey imaging with [111In]-(P2)
Protocol: (§1) Blood kinetic parameters were calculated with OLINDA/EXM 1.0 from the blood concentration of radioactivity by blood collection over time from a cynomolgus monkey using [^111In]-(P2). Also, absorbed doses in each organ in the case of administration to humans were calculated with OLINDA/EXM 1.0 from organ distribution by imaging using [^111In]-(P2). The radiolabeled compound [^111In]-(P2) (98 MBq/[…]) was administered to a cynomolgus monkey (Hamri Co., Ltd., male, 3 years old, 3.4 kg) under anesthesia. After the administration, blood collection and imaging with a gamma camera were performed over time. The blood collection was carried out 10 minutes, 30 minutes, 60 minutes, 2 hours, 4 hours, 5 hours, 6 hours, 24 hours, 48 hours, 72 hours, and 144 hours after administration. The imaging was carried out 1, 2, 4, 6, 24, 48, 72, and 144 hours after administration with a gamma camera (Symbia, Siemens AG) to take planar images. The anesthesia was carried out using 20 mg/kg ketamine before administration of [^111In]-(P2) and maintained by inhalation anesthesia (2 to 3% isoflurane, 5 to 8 L/min) until the completion of the imaging at 6 hours after administration. At or after 24 hours after administration, blood collection and imaging were performed by the introduction of 20 mg/kg ketamine and 2 mg/kg xylazine. […] The blood kinetic parameters are shown below.

[3] = tested on: U87MG cells subcutaneous tumor; assay: Concentration of radioactivity in tumor of labeled compounds (Test Example 4); assay type: in vivo, mouse; details: tail vein, 111In 740 kBq, 64Cu and 90Y 500 kBq
Protocol: U87MG cells were subcutaneously transplanted at 1×10^7 cells/mouse to the right flank of Balb/cAJcl-nu/nu (CLEA Japan, Inc. or Japan SLC, Inc., 6 to 9 weeks old). After 2 to 3 weeks, the mice were divided into groups each involving 3 individuals per point in time when their tumors became 200 to 500 mm^3. The ^111In-labeled compound (740 kBq) was administered to the tail veins of the mice.
After a given time, the animals were sacrificed to extract their tumors. The weights of the tumors were measured, and the radioactivity was measured using a gamma counter to calculate the concentration of radioactivity in the tumors (% ID/g). In the same way as above, the concentration of radioactivity in the tumors (% ID/g) was calculated for the ^64Cu-labeled compound (500 kBq) and the ^90Y-labeled compound (500 kBq).

[4] = tested on: U87MG cells subcutaneous tumor; assay: Imaging of integrin-expressing tumor by PET; assay type: in vivo; details: at the time of anatomy (48 hours after administration), 4.8 MBq/mouse tail vein
Protocol: U87MG cells were subcutaneously transplanted at 1×10^7 cells/mouse to the right flank of Balb/cAJcl-nu/nu (CLEA Japan, Inc. or Japan SLC, Inc., male, 6 to 9 weeks old). After 2 weeks, the radiolabeled compound [^64Cu]-(P2) was administered at 4.8 MBq/mouse to the tail veins of mice whose tumors became 250 to 650 mm^3. After 1, 4, 24, and 48 hours, the images were taken in microPET/CT (Inveon, Siemens AG) under isoflurane anesthesia. After the imaging at 48 hours after administration, the mice were euthanized by the collection of the whole blood from the postcava under deep anesthesia with isoflurane, followed by tumor extraction. The weights of the tumors were measured, and the radioactivity was measured using a gamma counter to calculate the concentration of radioactivity in the tumors (% ID/g). In the same way as above, [^64Cu]-(Aa7), [^64Cu]-(Ab9-a), and [^64Cu]-(Ab9-b) were imaged. However, the concentration of radioactivity in the tumors was not calculated. The tumor accumulation was confirmed for all of the compounds 1 hour after administration, and the tumors were visualized up to 48 hours later. […] The concentration of radioactivity in the tumors was 5.6% ID/g at the time of anatomy (48 hours after administration).

[5] = tested on: Caki-2 (human renal cell cancer) subcutaneous tumor; assay: Tumor accumulation of [111In]-(A8), tissue extraction and radioactivity measurement, Caki-2; assay type: in vivo, mouse; details: 740 kBq tail vein
Protocol: (§2) SK-MEL-28 (human melanoma), A375 (human melanoma), A498 (human renal cell cancer), Caki-2 (human renal cell cancer), HCT116, U87MG, and T98G cells were studied as follows: the cells of each line were cultured and subcutaneously transplanted at 1×10^7 cells/mouse to the right flank of Balb/cAJcl-nu/nu (CLEA Japan, Inc., male, 6 to 8 weeks old). The mice were raised until their tumor volumes reached 85 to 1,075 mm^3. Then, the mice were allocated at the time of anatomy to groups each involving 3 individuals so as to prevent the tumor volumes from disproportioning among the groups. Then, the radiolabeled compound [^111In]-(A8) (740 kBq) was administered to the tail veins of the mice. The animals were sacrificed at the time of anatomy to extract their tumors. The weights of the tumors were measured, and then, the radioactivity was measured using a gamma counter to calculate the concentration of radioactivity in the tumors (% ID/g: % injected dose/g).

[6] = tested on: SK-MEL-28 (human melanoma) subcutaneous tumor; assay: Tumor accumulation of [111In]-(A8), tissue extraction and radioactivity measurement, SK-MEL-28; assay type: in vivo, mouse; details: 740 kBq tail vein
Protocol: as §2

[7] = tested on: T98G (human glioblastoma) subcutaneous tumor; assay: Tumor accumulation of [111In]-(A8), tissue extraction and radioactivity measurement, T98G; assay type: in vivo, mouse; details: 740 kBq tail vein
Protocol: as §2

[8] = tested on: U87MG (human glioblastoma) subcutaneous tumor; assay: Tumor accumulation of [111In]-(A8), tissue extraction and radioactivity measurement, U87MG; assay type: in vivo, mouse; details: 740 kBq tail vein
Protocol: as §2

[9] = tested on: A498 (human renal cell cancer) subcutaneous tumor; assay: Tumor accumulation of [111In]-(A8), tissue extraction and radioactivity measurement, A498; assay type: in vivo, mouse; details: 740 kBq tail vein
Protocol: as §2

[10] = tested on: A375 (human melanoma) subcutaneous tumor; assay: Tumor accumulation of [111In]-(A8), tissue extraction and radioactivity measurement, A375; assay type: in vivo, mouse; details: 740 kBq tail vein
Protocol: as §2

[11] = tested on: HCT116 (human colorectal cancer) subcutaneous tumor; assay: Tumor accumulation of [111In]-(A8), tissue extraction and radioactivity measurement, HCT116; assay type: in vivo, mouse; details: 740 kBq tail vein
Protocol: as §2

[12] = tested on: U87MG cells intracranial tumor; assay: Imaging of integrin-expressing tumor, intracranial tumor model; assay type: in vivo; details: 1 MBq/mouse tail vein, FIG. 7
Protocol: U87MG cells were intracranially transplanted at 1×10^7 cells/mouse to Balb/cAJcl-nu/nu (CLEA Japan, Inc., male, 6 weeks old) using a tapered needle. After 2 to 4 weeks, a dosing solution of the radiolabeled compound [^111In]-(P2) was administered at 1 MBq/mouse to the tail veins of the mice. 24, 48, and 72 hours after administration, the planar images were taken with a gamma camera (Symbia, Siemens AG) under isoflurane anesthesia (FIG. 7). After the imaging at the final time point, the brain was extracted, and frozen sections were prepared. Several pieces of the tumor sections were contacted with IP plates, and accumulation images were obtained by autoradiography (ARG). The serial sections were stained with hematoxylin-eosin to confirm tumors.

[13] = Blood kinetic parameters in monkey; assay type: in vivo; details: cynomolgus monkey, blood radioactivity, 98 MBq
Protocol: as §1

[14] = Time-dependent planar imaging of monkey; assay type: in vivo; details: cynomolgus monkey, from administration to 6 hours later, FIG. 9
Protocol: as §1, with “below. […]” for “below.”

[15] = tested on: U87MG cells subcutaneous tumor; assay: Imaging of integrin-expressing tumor with gamma camera; assay type: in vivo; details: 1 MBq/mouse tail vein, 24 hours to 72 hours after administration, FIG. 6
Protocol: U87MG cells were subcutaneously transplanted at 1×10^7 cells/mouse to the right flank of Balb/cAJcl-nu/nu (CLEA Japan, Inc., male, 6 weeks old). After 2 weeks, a dosing solution of the radiolabeled compound [^111In]-(P2) was administered at 1 MBq/mouse to the tail veins of mice whose tumors became 300 to 600 mm^3. 24, 48, and 72 hours after administration, the planar images were taken with a gamma camera (Symbia, Siemens AG) under isoflurane anesthesia. The radioactivity in the tumors (% ID) was calculated by image analysis.

radiochemical purity after standing ([1]; immediately after preparation and after standing at room temperature for 22 hours): ≥ 90%
Absorbed dose, Brain [2]: 0.11 mGy/MBq
Absorbed dose, Kidney [2]: 0.69 mGy/MBq
Absorbed dose, Liver [2]: 0.09 mGy/MBq
Absorbed dose, Lung [2]: 0.08 mGy/MBq
Absorbed dose, Red bone marrow [2]: 0.01 mGy/MBq
Absorbed dose, Small intestine [2]: 0.06 mGy/MBq
Absorbed dose, Whole body [2]: 0.02 mGy/MBq
Concentration of radioactivity in tumor ([3]; 4 hours later): 9.25 % ID/g
Concentration of radioactivity in tumor ([3]; 24 hours later): 8.48 % ID/g
concentration of radioactivity in the tumors [4]: 5.6 % ID/g
Structure (SMILES): Cc1cc(OCCCC(=O)NCCNC(=O)[C@H](CS(=O)(=O)O)NC(=O)CN2CCN(CC(=O)[O-])CCN(CC(=O)[O-])CCN(CC(=O)O)CC2)cc(C)c1S(=O)(=O)N[C@@H](CNC(=O)CCCCc1ccc2c(n1)NCCC2)C(=O)O.[64Cu+2] [[^64Cu]-(P2)]

Concentration of radioactivity in tumor ([5]; caki-2, 4 hours later): 6.4 % ID/g
Concentration of radioactivity in tumor ([5]; caki-2, 24 hours later): 8.5 % ID/g
Concentration of radioactivity in tumor ([6]; sk-mel-28, 4 hours later): 2.9 % ID/g
Concentration of radioactivity in tumor ([6]; sk-mel-28, 24 hours later): 4.9 % ID/g
Concentration of radioactivity in tumor ([3]; 4 hours later): 9.48 % ID/g
Concentration of radioactivity in tumor ([3]; 24 hours later): 12.90 % ID/g
Concentration of radioactivity in tumor ([7]; 4 hours later): 6.5 % ID/g
Concentration of radioactivity in tumor ([7]; 24 hours later): 6.7 % ID/g
Concentration of radioactivity in tumor ([8]; 4 hours later): 12.0 % ID/g
Concentration of radioactivity in tumor ([8]; 24 hours later): 9.3 % ID/g
Concentration of radioactivity in tumor ([9]; A498, 4 hours later): 13.1 % ID/g
Concentration of radioactivity in tumor ([9]; A498, 24 hours later): 7.9 % ID/g
Concentration of radioactivity in tumor ([10]; A375, 4 hours later): 3.7 % ID/g
Concentration of radioactivity in tumor ([10]; A375, 24 hours later): 3.8 % ID/g
Concentration of radioactivity in tumor ([11]; HCT116, 4 hours later): 3.1 % ID/g
Concentration of radioactivity in tumor ([11]; HCT116, 24 hours later): 2.9 % ID/g
Structure (SMILES): Cc1cc(OCCCC(=O)NCCNC(=O)C(CS(=O)(=O)O)NC(=O)C(CS(=O)(=O)O)NC(=O)CN2CCN(CC(=O)[O-])CCN(CC(=O)[O-])CCN(CC(=O)[O-])CC2)cc(C)c1S(=O)(=O)NC(CNC(=O)c1ccc(CCc2ccc3c(n2)NCCC3)cc1)C(=O)O.[111In+3] (stereo not shown) [[^111In]-(A8)]

radiochemical purity after standing ([1]; immediately after preparation and after standing at room temperature for 24 hours): ≥ 95%
AUC [13]: 0.22 % ID · h/mL
CL [13]: 2.17 mL/min/kg
Cmax [13]: 0.018 % ID/mL
T½ α [13]: 0.46 h
T½ β [13]: 19.3 h
Vss [13]: 3.52 L/kg
Absorbed dose, Brain [2]: 0.25 mGy/MBq
Absorbed dose, Kidney [2]: 1.19 mGy/MBq
Absorbed dose, Liver [2]: 0.19 mGy/MBq
Absorbed dose, Lung [2]: 0.12 mGy/MBq
Absorbed dose, Red bone marrow [2]: 0.05 mGy/MBq
Absorbed dose, Small intestine [2]: 0.05 mGy/MBq
Absorbed dose, Whole body [2]: 0.05 mGy/MBq
Concentration of radioactivity in tumor ([3]; 4 hours later): 11.10 % ID/g
Concentration of radioactivity in tumor ([3]; 24 hours later): 9.62 % ID/g
Structure (SMILES): Cc1cc(OCCCC(=O)NCCNC(=O)[C@H](CS(=O)(=O)O)NC(=O)CN2CCN(CC(=O)[O-])CCN(CC(=O)[O-])CCN(CC(=O)[O-])CC2)cc(C)c1S(=O)(=O)N[C@@H](CNC(=O)CCCCc1ccc2c(n1)NCCC2)C(=O)O.[111In+3] [[^111In]-(P2)]
accumulation in intracranial tumor by planar imaging and ARG [12]: consistent with the tumor was confirmed
organ accumulation on planar images [14]: accumulation to the bladder and the gallbladder was increased over time
radioactivity in tumor versus other organs, planar images [15]: radioactivity was higher in the tumor than other organs
